Results reported in patent US10793563B2, “GCN2 inhibitors and uses thereof” (Merck Patent GmbH, priority 2018, dated 2020).

Biological target: GCN2 kinase (Homo sapiens (Human), UniProt Q9P2K8)
Assay: GCN2 Enzyme Inhibition Assay (Transcreener ADP2 fluorescence polarization)
Format: biochemical
Conditions: 280 μM ATP, 200 μM (RS)7 peptide, 4 nM GCN2, 25° C.
Description: Compounds were screened for their ability to inhibit GCN2 kinase activity using a Transcreener® ADP^2 fluorescence polarization assay that detects ADP levels (BellBrook Labs, WI). Assays were carried out in a buffer consisting of 25 mM Tris-HCl (pH 7.5), 50 mM NaCl, 10 mM MgCl2 and 1 mM DTT. […] Assays were carried out at 25° C. in the presence of a (typical) final concentration of 4 nM GCN2 kinase. An assay buffer containing GCN2 kinase and (RS)7 was prepared. […] The plate was incubated for 10 minutes at 25° C. prior to the addition of 4.7 μL of ATP stock buffer to initiate the enzyme reaction. The reaction was allowed to proceed for 1 hour at 25° C., prior to the addition of 10 μL detection buffer (consisting of appropriate concentrations of ADP^2 antibody and ADP Alexa633 tracer in 1× stop and detect buffer as supplied by BellBrook Labs). […] Percentage inhibition of enzyme activity was then calculated at each compound dose. IC50 and Ki(app) (using known assay and kinetic parameters) values were calculated from percentage inhibition data using a non-linear, tight-binding algorithm. All data analysis was undertaken using the Screener® software package (Genedata, Switzerland).

Sequence of GCN2 kinase (Q9P2K8 whole entry): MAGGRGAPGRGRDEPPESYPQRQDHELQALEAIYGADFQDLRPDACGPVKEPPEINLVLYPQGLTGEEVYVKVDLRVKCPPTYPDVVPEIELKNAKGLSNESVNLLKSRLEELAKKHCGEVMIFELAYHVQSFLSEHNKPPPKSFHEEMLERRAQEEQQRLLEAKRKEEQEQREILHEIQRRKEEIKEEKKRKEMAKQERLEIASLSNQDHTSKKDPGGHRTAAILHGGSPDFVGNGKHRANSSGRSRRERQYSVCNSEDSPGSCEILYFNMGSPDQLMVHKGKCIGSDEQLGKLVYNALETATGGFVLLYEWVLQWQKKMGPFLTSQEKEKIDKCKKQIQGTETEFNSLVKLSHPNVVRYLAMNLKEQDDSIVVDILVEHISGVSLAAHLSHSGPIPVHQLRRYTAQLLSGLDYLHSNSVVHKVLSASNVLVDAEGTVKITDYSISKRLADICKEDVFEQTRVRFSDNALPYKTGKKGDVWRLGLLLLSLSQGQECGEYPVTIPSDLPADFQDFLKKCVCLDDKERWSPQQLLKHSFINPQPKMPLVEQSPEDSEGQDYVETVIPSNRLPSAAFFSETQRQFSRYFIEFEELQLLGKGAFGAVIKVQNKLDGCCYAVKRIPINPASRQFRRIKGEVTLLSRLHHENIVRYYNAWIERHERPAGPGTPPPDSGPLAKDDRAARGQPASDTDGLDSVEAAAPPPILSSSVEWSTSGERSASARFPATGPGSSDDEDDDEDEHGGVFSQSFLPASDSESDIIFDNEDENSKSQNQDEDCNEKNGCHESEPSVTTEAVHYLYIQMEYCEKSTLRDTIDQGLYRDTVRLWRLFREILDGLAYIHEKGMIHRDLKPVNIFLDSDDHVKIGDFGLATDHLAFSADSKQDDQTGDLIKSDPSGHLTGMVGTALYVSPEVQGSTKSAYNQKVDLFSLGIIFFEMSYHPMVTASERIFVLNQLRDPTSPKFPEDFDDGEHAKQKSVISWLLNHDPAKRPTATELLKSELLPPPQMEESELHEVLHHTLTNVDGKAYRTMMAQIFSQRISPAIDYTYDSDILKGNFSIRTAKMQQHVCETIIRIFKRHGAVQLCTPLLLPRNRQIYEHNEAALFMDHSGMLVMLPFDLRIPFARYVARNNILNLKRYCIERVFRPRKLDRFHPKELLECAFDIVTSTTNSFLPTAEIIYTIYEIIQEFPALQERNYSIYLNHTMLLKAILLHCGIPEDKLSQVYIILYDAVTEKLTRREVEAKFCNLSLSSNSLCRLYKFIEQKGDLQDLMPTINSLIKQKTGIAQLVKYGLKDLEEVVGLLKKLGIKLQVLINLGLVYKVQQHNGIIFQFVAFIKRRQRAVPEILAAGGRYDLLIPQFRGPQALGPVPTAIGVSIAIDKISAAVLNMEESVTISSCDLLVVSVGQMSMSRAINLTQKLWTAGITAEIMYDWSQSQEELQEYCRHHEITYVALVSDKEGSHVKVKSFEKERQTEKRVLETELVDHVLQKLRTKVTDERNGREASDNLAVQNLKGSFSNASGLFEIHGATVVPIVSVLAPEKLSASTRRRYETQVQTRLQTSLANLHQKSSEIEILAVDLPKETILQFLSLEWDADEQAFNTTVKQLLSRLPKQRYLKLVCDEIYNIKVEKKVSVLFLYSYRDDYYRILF

Row | SMILES | IC50 [µM]
1 | C[C@H]1C[C@@H](N=S(C)(C)=O)CN(c2ccnc(-c3cnc4ccc(S(=O)(=O)NC5CC5)cn34)n2)C1 [I-319, N-cyclopropyl-3-(4-((3R,5S)-3-((dimethyl(oxo)-λ6-sulfaneylidene)amino)-5-methylpiperidin-1-yl)pyrimidin-2-yl)imidazo[1,2-a]pyridine-6-sulfonamide] | 0.1 to 1
2 | CC(C)(C)OC(=O)N1CCN(c2ccnc(-c3cnc4ccc(C(F)(F)F)cn34)n2)CC1C(N)=O (stereo not drawn) [I-207, tert-butyl 2-carbamoyl-4-(2-(6-(trifluoromethyl)imidazo[1,2-a]pyridin-3-yl)pyrimidin-4-yl)piperazine-1-carboxylate] | 0.1 to 1
3 | CC1CN(c2ccnc(-c3cnc4ccc(C(F)(F)F)cn34)n2)CC(C#N)O1 (stereo not drawn) [I-331, 6-methyl-4-(2-(6-(trifluoromethyl)imidazo[1,2-a]pyridin-3-yl)pyrimidin-4-yl)morpholine-2-carbonitrile] | 0.1 to 1
4 | Cc1cnc(N2CCC[C@H](C(N)=O)C2)nc1-c1cnc2ccc(Cl)cn12 [I-174, (S)-1-(4-(6-chloroimidazo[1,2-a]pyridin-3-yl)-5-methylpyrimidin-2-yl)piperidine-3-carboxamide] | 0.01 to 0.1
5 | NC(=O)CC1CCCN(c2ccnc(-c3cnc4ccc(Cl)cn34)n2)C1 (stereo not drawn) [I-162, 2-(1-(2-(6-chloroimidazo[1,2-a]pyridin-3-yl)pyrimidin-4-yl)piperidin-3-yl)acetamide] | 0.01 to 0.1
6 | NC(=O)[C@@H]1CCCN(c2ccnc(-c3cnc4ccc(Cl)cn34)n2)C1 [I-164, (R)-1-(2-(6-chloroimidazo[1,2-a]pyridin-3-yl)pyrimidin-4-yl)piperidine-3-carboxamide] | 0.01 to 0.1
7 | CC(C)(C(N)=O)C1CCCN(c2ccnc(-c3cnc4ccc(Cl)cn34)n2)C1 (stereo not drawn) [I-309, 2-(1-(2-(6-chloroimidazo[1,2-a]pyridin-3-yl)pyrimidin-4-yl)piperidin-3-yl)-2-methylpropanamide] | 0.1 to 1
8 | CC1CN(c2ccnc(-c3cnc4ccc(C(F)(F)F)cn34)n2)CC(C)N1C1COC1 (stereo not drawn) [I-234, 3-(4-(3,5-dimethyl-4-(oxetan-3-yl)piperazin-1-yl)pyrimidin-2-yl)-6-(trifluoromethyl)imidazo[1,2-a]pyridine] | 0.01 to 0.1
9 | CC(=O)NC1CCCN(c2ccnc(-c3cnc4ccc(C(F)(F)F)cn34)n2)C1 (stereo not drawn) [I-187, N-(1-(2-(6-(trifluoromethyl)imidazo[1,2-a]pyridin-3-yl)pyrimidin-4-yl)piperidin-3-yl)acetamide] | 0.01 to 0.1
10 | Cc1cc(-c2cnc3ccc(Cl)cn23)nc(N2C[C@H](C)C[C@H](N=S(C)(C)=O)C2)n1 [I-168, (((3 S,5R)-1-(4-(6-chloroimidazo[1,2-a]pyridin-3-yl)-6-methylpyrimidin-2-yl)-5-methylpiperidin-3-yl)imino)dimethyl-λ6-sulfanone] | 0.01 to 0.1
11 | COCCN1CCN(c2ccnc(-c3cnc4ccc(C(F)(F)F)cn34)n2)CC1C(N)=O (stereo not drawn) [I-258, 1-(2-methoxyethyl)-4-(2-(6-(trifluoromethyl)imidazo[1,2-a]pyridin-3-yl)pyrimidin-4-yl)piperazine-2-carboxamide] | 0.01 to 0.1
12 | C[C@@H]1CN(c2ccnc(-c3cnc4ccc(C(F)(F)F)cn34)n2)C[C@@H](C(N)=O)O1 [I-265, (2S,6R)-6-methyl-4-(2-(6-(trifluoromethyl)imidazo[1,2-a]pyridin-3-yl)pyrimidin-4-yl)morpholine-2-carboxamide] | 0.01 to 0.1
13 | Cc1noc(C2CN(c3ccnc(-c4cnc5ccc(C(F)(F)F)cn45)n3)CCN2C)n1 (stereo not drawn) [I-332, 3-methyl-5-(1-methyl-4-(2-(6-(trifluoromethyl)imidazo[1,2-a]pyridin-3-yl)pyrimidin-4-yl)piperazin-2-yl)-1,2,4-oxadiazole] | 0.1 to 1
14 | Cc1nn(C)cc1[C@@H]1C[C@H](C)CN(c2nccc(-c3cnc4ccc(C(F)(F)F)cn34)n2)C1 [I-141, 3-(2-((3S,5S)-3-(1,3-dimethyl-1H-pyrazol-4-yl)-5-methylpiperidin-1-yl)pyrimidin-4-yl)-6-(trifluoromethyl)imidazo[1,2-a]pyridine] | 0.1 to 1
15 | O=C(C1CCCN(c2ccnc(-c3cnc4ccc(C(F)(F)F)cn34)n2)C1)N1CCCC1 (stereo not drawn) [I-131, pyrrolidin-1-yl(1-(2-(6-(trifluoromethyl)imidazo[1,2-a]pyridin-3-yl)pyrimidin-4-yl)piperidin-3-yl)methanone] | 0.1 to 1

Continued, values first:

Row | IC50 [µM] | SMILES
16 | 0.1 to 1 | Cc1oncc1C(=O)N1CCN(c2ccnc(-c3cnc4ccc(C(F)(F)F)cn34)n2)C[C@H]1c1cn[nH]c1 [I-550, (R)-(2-(1H-pyrazol-4-yl)-4-(2-(6-(trifluoromethyl)imidazo[1,2-a]pyridin-3-yl)pyrimidin-4-yl)piperazin-1-yl)(5-methylisoxazol-4-yl)methanone]
17 | 0.1 to 1 | C[C@@H]1CN(c2ccnc(-c3cnc4ccc(C(F)(F)F)cn34)n2)C[C@H](C)N1C(=O)C1(C)CC1 [I-486, (cis-2,6-dimethyl-4-(2-(6-(trifluoromethyl)imidazo[1,2-a]pyridin-3-yl)pyrimidin-4-yl)piperazin-1-yl)(1-methylcyclopropyl)methanone]
18 | 0.1 to 1 | C[C@@H]1CN(c2ccnc(-c3cnc4ccc(C(F)(F)F)cn34)n2)C[C@H](C)N1C(=O)c1cc2n(n1)CCOC2 [I-513, (6,7-dihydro-4H-pyrazolo[5,1-c][1,4]oxazin-2-yl)(cis-2,6-dimethyl-4-(2-(6-(trifluoromethyl)imidazo[1,2-a]pyridin-3-yl)pyrimidin-4-yl)piperazin-1-yl)methanone]
19 | 0.01 to 0.1 | Cc1noc([C@@H]2CN(c3ccnc(-c4cnc5ccc(C(F)F)cn45)n3)C[C@H](C)O2)n1 [I-498, (2S,6S)-4-(2-(6-(difluoromethyl)imidazo[1,2-a]pyridin-3-yl)pyrimidin-4-yl)-2-methyl-6-(3-methyl-1,2,4-oxadiazol-5-yl)morpholine]
20 | 0.01 to 0.1 | C[C@@H]1CN(c2ccnc(-c3cnc4ccc(C(F)(F)F)cn34)n2)C[C@H](C)N1C(=O)C1CC1(F)F (stereo partly drawn) [I-438, (2,2-difluorocyclopropyl)(cis-2,6-dimethyl-4-(2-(6-(trifluoromethyl)imidazo[1,2-a]pyridin-3-yl)pyrimidin-4-yl)piperazin-1-yl)methanone]
21 | 0.1 to 1 | C[C@H]1[C@H](c2cn[nH]c2)NCCN1c1ccnc(-c2cnc3ccc(C(F)(F)F)cn23)n1 [I-535, 3-(4-((2S,3 S)-2-methyl-3-(1H-pyrazol-4-yl)piperazin-1-yl)pyrimidin-2-yl)-6-(trifluoromethyl)imidazo[1,2-a]pyridine]
22 | 0.1 to 1 | C[C@@H]1CN(c2ccnc(-c3cnc4ccc(C(F)(F)F)cn34)n2)C[C@H](C)N1C(=O)C1CC(F)(F)C1 [I-437, (3,3-difluorocyclobutyl)(cis-2,6-dimethyl-4-(2-(6-(trifluoromethyl)imidazo[1,2-a]pyridin-3-yl)pyrimidin-4-yl)piperazin-1-yl)methanone]
23 | 0.1 to 1 | Cc1noc([C@@H]2CN(c3ccnc(-c4cnc5cc(F)c(C6CC6)cn45)n3)C[C@H](C)O2)n1 [I-341, (2S,6S)-4-(2-(6-cyclopropyl-7-fluoroimidazo[1,2-a]pyridin-3-yl)pyrimidin-4-yl)-2-methyl-6-(3-methyl-1,2,4-oxadiazol-5-yl)morpholine]
24 | 0.1 to 1 | Cc1oncc1C(=O)N1CCN(c2ccnc(-c3cnc4ccc(C(F)(F)F)cn34)n2)CC1c1cn[nH]c1 (stereo not drawn) [I-515, (2-(1H-pyrazol-4-yl)-4-(2-(6-(trifluoromethyl)imidazo[1,2-a]pyridin-3-yl)pyrimidin-4-yl)piperazin-1-yl)(5-methylisoxazol-4-yl)methanone]
25 | 0.1 to 1 | O=C1CCC[C@@H](C(=O)N2CCN(c3ccnc(-c4cnc5ccc(C(F)(F)F)cn45)n3)C[C@@H]2c2cn[nH]c2)N1 [I-474, (S)-6-((S)-2-(1H-pyrazol-4-yl)-4-(2-(6-(trifluoromethyl)imidazo[1,2-a]pyridin-3-yl)pyrimidin-4-yl)piperazine-1-carbonyl)piperidin-2-one]
26 | 0.1 to 1 | CC1(O)CC(C(=O)N2CCN(c3ccnc(-c4cnc5ccc(C(F)(F)F)cn45)n3)CC2c2cn[nH]c2)C1 (stereo not drawn) [I-509, (2-(1H-pyrazol-4-yl)-4-(2-(6-(trifluoromethyl)imidazo[1,2-a]pyridin-3-yl)pyrimidin-4-yl)piperazin-1-yl)(3-hydroxy-3-methylcyclobutyl)methanone]
27 | 0.01 to 0.1 | CC(=O)N1CCN(c2ccnc(-c3cnc4ccc(C(F)(F)F)cn34)n2)CC1(C)C [I-336, 1-(2,2-dimethyl-4-(2-(6-(trifluoromethyl)imidazo[1,2-a]pyridin-3-yl)pyrimidin-4-yl)piperazin-1-yl)ethan-1-one]

Same assay, conditions: Ki(app); 280 μM ATP, 200 μM (RS)7 peptide, 4 nM GCN2, 25° C.

Row | Ki [µM] | SMILES
28 | 0.1 to 1 | N[C@H]1CCCN(c2ccnc(-c3cnc4ccc(Cl)cn34)n2)C1 [I-87, (3S)-1-(2-{6-chloroimidazo[1,2-a]pyridine-3-yl}pyrimidin-4-yl)piperidin-3-amine]
29 | 0.01 to 0.1 | O=C1OCCC2CN(c3ccnc(-c4cnc5ccc(Cl)cn45)n3)CCN12 (stereo not drawn) [I-98, 2-(2-{6-chloroimidazo[1,2-a]pyridin-3-yl}pyrimidin-4-yl)-octahydropyrazino[1,2-c][1,3]oxazin-6-one]
30 | 0.01 to 0.1 | C[C@@H]1CN(c2ccnc(-c3cnc4ccc(C(F)(F)F)cn34)n2)[C@H](C)[C@H](c2cn[nH]c2)N1 (stereo in doubt) [I-38, 3-[4-[2,5-dimethyl-3-(1H-pyrazol-4-yl)piperazin-1-yl]pyrimidin-2-yl]-6-(trifluoromethyl)imidazo[1,2-a]pyridine]
